Measured values published in patent publication US20170121322A1, “BET-PROTEIN INHIBITING 3,4-DIHYDROPYRIDO[2,3-B]PYRAZINONES WITH META-SUBSTITUTED AROMATIC AMINO- OR ETHER GROUPS” (Bayer Pharma Aktiengesellschaft, priority 2014, published 2017).

Experiments:
B16F10 cells = experiment: Cell proliferation assay B16F10 (alamarBlue); type: cell-based; conditions: Mus musculus, B16-F10, melanoma (BRAF wild-type) cells, 96 hours
Experimental: (§1) In accordance with the invention, the ability of the substances to inhibit cell proliferation was determined. Cell viability was determined by means of the alamarBlue® reagent (Invitrogen) in a Victor X3 Multilabel Reader (Perkin Elmer). The excitation wavelength was 530 nm and the emission wavelength […].
The B16F10 cells (ATCC, CRL-6475) were seeded at a concentration of 300-500 cells/well in 100 μl of growth medium (DMEM with phenol red, 10% FCS) on 96-well microtitre plates.
(§2) After overnight incubation at 37° C., the fluorescence values (CI values) were determined. Then the plates were treated with various substance dilutions (1E-5 M, 3E-6 M, 1E-6 M, 3E-7 M, 1E-7 M, 3E-8 M, 1E-8 M) and incubated at 37° C. over 96 hours (MOLM-13, B16F10, CHL-1 cells) or 120 hours (MOLP-8 cells). Subsequently, the fluorescence values were determined (CO values). For the data analysis, the CI values were subtracted from the CO values and the results were compared between cells which had been treated with various dilutions of the substance or only with buffer solution. The IC50 values (substance concentration needed for 50% inhibition of cell proliferation) were calculated therefrom.
(§3) The substances were tested in the cell lines in Table 2, which represent the indications specified by way of example: […]

CHL-1 cells = experiment: Cell proliferation assay CHL-1 (alamarBlue); type: cell-based; conditions: Homo sapiens, melanoma (BRAF wild-type) cells, 96 hours
Experimental: as §1
The CHL-1 cells (ATCC, CRL-9446) were seeded at a concentration of 1000 cells/well in 100 μl of growth medium (DMEM with glutamine, 10% FCS) on 96-well microtitre plates.
as §2, §3

[1] = biological target: T1, BRD4 bromo domain 1 [BRD4(1)] (Homo sapiens, UniProt O60885); experiment: BRD4(1)/acetylated peptide H4 TR-FRET binding assay; conditions: His6-BRD4(1) (aa 67-152) vs acetylated histone H4 peptide
T1 construct: N-terminally His6-tagged BRD4(1) (amino acids 67-152); made in house; host or cells: E. coli
Excerpt: To assess the BRD4(1) binding strength of the substances described in this application, the ability thereof to inhibit the interaction between BRD4(1) and acetylated histone H4 in a dose-dependent manner was quantified.
For this purpose, a time-resolved fluorescence resonance energy transfer (TR-FRET) assay was used, which measures the binding between N-terminally His6-tagged BRD4(1) (amino acids 67-152) and a synthetic acetylated histone H4 (Ac-H4) peptide with sequence GRGK(Ac)GGK(Ac)GLGK(Ac)GGAK(Ac)RHGSGSK-biotin. The recombinant BRD4(1) protein produced in-house according to Filippakopoulos et al., Cell, 2012, 149:214-231 was expressed in E. coli and purified by means of (Ni-NTA) affinity and (Sephadex G-75) size exclusion chromatography. The Ac-H4 peptide can be purchased, for example, from Biosyntan (Berlin, Germany).
In the assay, typically 11 different concentrations of each substance (0.1 nM, 0.33 nM, 1.1 nM, 3.8 nM, 13 nM, 44 nM, 0.15 μM, 0.51 μM, 1.7 μM, 5.9 μM and 20 μM) were analysed as duplicates on the same microtitre plate. For this purpose, 100-fold concentrated solutions in DMSO were prepared by serial dilutions (1:3.4) of a 2 mM stock solution into a clear, 384-well microtitre plate (Greiner Bio-One, Frickenhausen, Germany). From this, 50 nl were transferred into a black test plate (Greiner Bio-One, Frickenhausen, Germany). The test was started by the addition of 2 μl of a 2.5-fold concentrated BRD4(1) solution (final concentration typically 10 nM in the 5 μl of reaction volume) in aqueous assay buffer [50 mM HEPES pH 7.5, 50 mM sodium chloride (NaCl), 0.25 mM CHAPS and 0.05% serum albumin (BSA)] to the substances in the test plate. This was followed by a 10-minute incubation step at 22° C. for the pre-equilibration of putative complexes between BRD4(1) and the substances. Subsequently, 3 μl of a solution of 1.67 times the concentration (in assay buffer) consisting of Ac-H4 peptide (83.5 nM) and TR-FRET detection reagents [16.7 nM anti-6His-XL665 and 3.34 nM streptavidin cryptate (both from Cisbio Bioassays, Codolet, France), and 668 mM potassium fluoride (KF)] were added.
The mixture was then incubated in the dark at 22° C. for one hour and then at 4° C. for at least 3 hours and for no longer than overnight. The formation of BRD4(1)/Ac-H4 complexes was determined by the measurement of the resonance energy transfer from the streptavidin-Eu cryptate to the anti-6His-XL665 antibody present in the reaction. For this purpose, the fluorescence emission was measured at 620 nm and 665 nm after excitation at 330-350 nm in a TR-FRET measuring instrument, for example a Rubystar or Pherastar (both from BMG Lab Technologies, Offenburg, Germany) or a Viewlux (Perkin-Elmer). The ratio of the emissions at 665 nm and at 622 nm was taken as an indicator of the amount of BRD4(1)/Ac-H4 complexes formed.
The data (ratios) obtained were normalized, with 0% inhibition corresponding to the mean from the measurements for a set of controls (typically 32 data points) in which all the reagents were present. In these, in place of test substances, 50 nl of DMSO (100%) were used. Inhibition of 100% corresponded to the mean from the measurements for a set of controls (typically 32 data points) in which all the reagents except BRD4(1) were present. The IC50 was determined by regression analysis based on a 4-parameter equation (minimum, maximum, IC50, Hill; Y=Max+(Min−Max)/(1+(X/IC50)Hill).

MOLM-13 cells = experiment: Cell proliferation assay MOLM-13, method 1 (alamarBlue); type: cell-based; conditions: Homo sapiens, acute myeloid leukaemia cells, 4000 cells/well, 96-well, 96 hours
Experimental: as §1
The MOLM-13 cells (DSMZ, ACC 554) were seeded at a concentration of 4000 cells/well in 100 μl of growth medium (RPMI1640, 10% FCS) on 96-well microtitre plates (method 1).
as §2, §3

Compound | IC50 (B16F10 cells) [nM] | IC50 [1] [nM] | IC50 (MOLM-13 cells) [nM] | IC50 (CHL-1 cells) [nM]
COc1ccc(S(=O)(=O)C2CC2)cc1Nc1ccc2c(n1)N(C1CCN(C)CC1)[C@H](C)C(=O)N2C [Example 12, (3R)-6-{[5-(Cyclopropylsulphonyl)-2-methoxyphenyl]amino}-1,3-dimethyl-4-(1-methylpiperidin-4-yl)-3,4-dihydropyrido[2,3-b]pyrazin-2(1H)-one] | 81 | 19 | 20 | 13
C[C@@H]1C(=O)N(C)c2ccc(Nc3cccc(S(C)(=O)=O)c3)nc2N1C1CCN(C)CC1 [Example 11, (3R)-1,3-Dimethyl-4-(1-methylpiperidin-4-yl)-6-{[3-(methylsulphonyl)phenyl]amino}-3,4-dihydropyrido[2,3-b]pyrazin-2(1H)-one] | 445 | 94 | 188 | 109
C[C@@H]1C(=O)N(C)c2ccc(Nc3cccc(S(C)(=O)=O)c3)nc2N1C1CCCCCC1 [Example 5, (3R)-4-Cycloheptyl-1,3-dimethyl-6-{[3-(methylsulphonyl)phenyl]amino}-3,4-dihydropyrido[2,3-b]pyrazin-2(1H)-one] | 611 | 152 | 651 | 371
COc1ccc(S(=O)(=O)C(C)C)cc1Nc1ccc2c(n1)N(C1CCNCC1)[C@H](C)C(=O)N2C [Example 26, (3R)-6-{[5-(Isopropylsulphonyl)-2-methoxyphenyl]amino}-1,3-dimethyl-4-(piperidin-4-yl)-3,4-dihydropyrido[2,3-b]pyrazin-2(1H)-one] | 147 | 19 | 10 | 22
COc1ccc(S(=O)(=O)C2CC2)cc1Nc1ccc2c(n1)N(C1CCOCC1)[C@H](C)C(=O)N2C [Example 8, (3R)-6-{[5-(Cyclopropylsulphonyl)-2-methoxyphenyl]amino}-1,3-dimethyl-4-(tetrahydro-2H-pyran-4-yl)-3,4-dihydropyrido[2,3-b]pyrazin-2(1H)-one] | 37 | 23 | 24 | 18
COc1ccc(S(=O)(=O)C2CCC2)cc1Nc1ccc2c(n1)N(C1CCOCC1)[C@H](C)C(=O)N2C [Example 35, (3R)-6-{[5-(Cyclobutylsulphonyl)-2-methoxyphenyl]amino}-1,3-dimethyl-4-(tetrahydro-2H-pyran-4-yl)-3,4-dihydropyrido[2,3-b]pyrazin-2(1H)-one] | 16 | 32 | 12 | 10
Cc1ccc(S(C)(=O)=O)cc1Nc1ccc2c(n1)N(C1CCOCC1)[C@H](C)C(=O)N2C [Example 2, (3R)-1,3-Dimethyl-6-{[2-methyl-5-(methylsulphonyl)phenyl]amino}-4-(tetrahydro-2H-pyran-4-yl)-3,4-dihydropyrido[2,3-b]pyrazin-2(1H)-one] | 319 | 83 | 238 | 189
COc1ccc(S(=O)(=O)C(C)C)cc1Nc1ccc2c(n1)N(C1CCN(C)CC1)[C@H](C)C(=O)N2C [Example 13, (3R)-6-{[5-(Isopropylsulphonyl)-2-methoxyphenyl]amino}-1,3-dimethyl-4-(1-methylpiperidin-4-yl)-3,4-dihydropyrido[2,3-b]pyrazin-2(1H)-one] | 59 | 16 | 15 | 11

More lines, main results first:

IC50 (B16F10 cells) [nM] | IC50 [1] [nM] | IC50 (MOLM-13 cells) [nM] | Compound | IC50 (CHL-1 cells) [nM]
375 | 93 | 289 | C[C@@H]1C(=O)N(C)c2ccc(Nc3ccc4c(c3)S(=O)(=O)CC4)nc2N1C1CCOCC1 [Example 4, (3R)-6-[(1,1-Dioxido-2,3-dihydro-1-benzothiophen-6-yl)amino]-1,3-dimethyl-4-(tetrahydro-2H-pyran-4-yl)-3,4-dihydropyrido[2,3-b]pyrazin-2(1H)-one] | 196
285 | 75 | 191 | C[C@@H]1C(=O)N(C)c2ccc(Nc3cccc(S(C)(=O)=O)c3)nc2N1C1CCOCC1 [Example 1, (3R)-1,3-Dimethyl-6-{[3-(methylsulphonyl)phenyl]amino}-4-(tetrahydro-2H-pyran-4-yl)-3,4-dihydropyrido[2,3-b]pyrazin-2(1H)-one] | 180
1080 | 228 | 686 | Cc1cc(Nc2ccc3c(n2)N(C2CCOCC2)[C@H](C)C(=O)N3C)ccn1 [Example 42, (3R)-1,3-Dimethyl-6-[(2-methylpyridin-4-yl)amino]-4-(tetrahydro-2H-pyran-4-yl)-3,4-dihydropyrido[2,3-b]pyrazin-2(1H)-one] | 445
1080 | 321 | 1220 | C[C@@H]1C(=O)N(C)c2ccc(Nc3cccc(C(F)(F)F)c3)nc2N1C1CCOCC1 [Example 43, (3R)-1,3-Dimethyl-4-(tetrahydro-2H-pyran-4-yl)-6-{[3-(trifluoromethyl)phenyl]amino}-3,4-dihydropyrido[2,3-b]pyrazin-2(1H)-one] | 707
104 | 28 | 111 | CC(C)S(=O)(=O)c1cccc(Nc2ccc3c(n2)N(C2CCOCC2)[C@H](C)C(=O)N3C)c1 [Example 7, (3R)-6-{[3-(Isopropylsulphonyl)phenyl]amino}-1,3-dimethyl-4-(tetrahydro-2H-pyran-4-yl)-3,4-dihydropyrido[2,3-b]pyrazin-2(1H)-one] | 51
87 | 24 | 89 | C[C@@H]1C(=O)N(C)c2ccc(Nc3cccc(S(=O)(=O)C4CC4)c3)nc2N1C1CCOCC1 [Example 6, (3R)-6-{[3-(Cyclopropylsulphonyl)phenyl]amino}-1,3-dimethyl-4-(tetrahydro-2H-pyran-4-yl)-3,4-dihydropyrido[2,3-b]pyrazin-2(1H)-one] | 46
